This is an account of results in US8729048B2, “Methods and materials for assessing responsiveness to PARP inhibitors and platinating agents” (Mayo Foundation for Medical Education and Research, priority 2011, dated 2014).

Assay type in all cases: cell-based
Experiment [1] has as its system MMEJ activity in PEO1 cells. In words: Microhomology mediated end-joining assay (MMEJ), PEO1. As to conditions: 72 hours. An excerpt:
(§1) FIG. 11. PARP inhibition fails to induce microhomology-mediated end-joining (MMEJ). (A) Schematic of the reporter substrate used to assay for MMEJ activity. Cleavage of pDVG94 with EcoRV and AfeI creates a blunt-ended linearized substrate, with identical 6-bp ends. Direct joining by NHEJ will result in maintenance of both repeats, but MMEJ will excise one repeat, introducing a new BstXI site. PCR across recircularized substrate produces a product of 180 bp, which can be cut into 120 and 60 bp fragments if the BstXI site was created. This figure is adapted from a figure provided elsewhere (Verkaik et al., Eur. J. Immunol., 32:701-709 (2002)). (B) and (C) Agarose gel from a representative MMEJ assay. PEO1 (B, lanes 1-10) and PEO4 (C) cells were treated with increasing concentrations of ABT-888 following transfection with linearized pDVG94. The size of the initial PCR product (180 bp) as well as BstXI cleaved products (120 bp and 60 bp) are indicated. As a positive and negative control, a cell line previously documented to undergo MMEJ (Lou et al., J. Biol. Chem., 279:46359-46362 (2004)), M059J (B, lanes 11 and 12), and a MMEJ-negative line, M059J+DNA-PKcs (B, lanes 13 and 14) were used. Images were captured from one gel and cut to create two panels. […]

Experiment [2] concerns MMEJ activity in PEO4 cells. As to the kind of experiment: Microhomology mediated end-joining assay (MMEJ), PEO4. The conditions noted are these: 72 hours.
Source text: as §1

The test system of experiment [3] is DNA-PKcs-reconstituted M059J cells. In words: Clonogenic assay, M059J+DNA-PKcs. The conditions noted are these: BRCA1 shRNA. The method, then: FIG. 6. […] (A) BRCA1-deficient HCC1937 and BRCA1-reconstituted HCC1937/BRCA1 cells were continuously exposed to ABT-888 in the presence or absence of 125 nM DNA-PKi and assayed for clonogenic survival. Inset, Western blots of cell lysates from HCC1937 and HCC1937/BRCA1. (B) Western blots of M059J and reconstituted M059J+DNA-PKcs lines showing the restoration of DNA-PK expression and the shRNA-mediated knockdown of BRCA1. (C) Clonogenic survival of shRNA transfected M059J/M059J+DNA-PKcs lines treated with ABT-888 for 72 hours. (D) Clonogenic survival of ATM-deficient GM16666 or ATM-reconstituted GM16667 fibroblasts. Cells were exposed to ABT-888 for 48 hours in the presence or absence of 250 nM DNA-PKi, washed, and allowed to form colonies. Inset, Western blots of lysates from GM16666 and GM16667 fibroblasts. […] Results are representative of 3 independent experiments.
All siRNA oligonucleotides were purchased from Ambion, Inc. (Austin, Tex.). Sequences, with references, are provided below. PEO1 and PEO4 cells were transfected with 150 picomoles of siRNA using the HiPerfect lipid transfection reagent (Qiagen; Valencia, Calif.). […]
Colony formation assays were performed on siRNA-transfected PEO1 and PEO4 cells 48 hours after the second transfection. […] Colonies containing ≧50 cells were scored manually. […]

On to `C[C@]1(c2nc3c(C(N)=O)cccc3[nH]2)CCCN1` [ABT-888], for which the “induction of MMEJ” value in experiment [1] and in experiment [2] was “not detected” throughout. In addition, the “clonogenic sensitivity to ABT-888 after BRCA1 knockdown” value in experiment [3] was “sensitized”.
